The values below are quoted from earlier work in patent publication US9278076B2, “Chronotherapeutic dosage forms” (Endo Pharmaceuticals Inc., priority 2003, dated 2016).

For the data set the following is noted: glucocorticoid equivalence chart.
Regarding `C[C@]12CCC(=O)C=C1CC[C@@H]1[C@@H]2C(=O)C[C@@]2(C)[C@H]1CC[C@]2(O)C(=O)CO` [Cortisone], the “Approximate Equivalent Dose” value is on record as 25 mg. For `C[C@]12CCC(=O)C=C1CC[C@@H]1[C@@H]2[C@@H](O)C[C@@]2(C)[C@H]1CC[C@]2(O)C(=O)CO` [Hydrocortisone], the “Approximate Equivalent Dose” value is 20 mg. For the molecule `C[C@]12C=CC(=O)C=C1CC[C@@H]1[C@@H]2[C@@H](O)C[C@@]2(C)[C@H]1CC[C@]2(O)C(=O)CO` [Prednisolone], the “Approximate Equivalent Dose” value was 5 mg. On to `C[C@]12C=CC(=O)C=C1CC[C@H]1[C@@H]3C[C@@H](O)[C@](O)(C(=O)CO)[C@@]3(C)C[C@H](O)[C@@]12F` [Triamcinolone], for which the “Approximate Equivalent Dose” value was 4 mg.
